Source: paper PMC4144908, “Structural Insights of the ssDNA Binding Site in the Multifunctional Endonuclease AtBFN2 from Arabidopsis thaliana” (PLoS ONE, 2014)

Key:
AtBFN2 [1] = target: T1, AtBFN2 (Arabidopsis thaliana, UniProt Q9C9G4); design: gene ENDO2; conditions: active site, tri-zinc cluster; crystals grown with 0.2 M Na2HPO4, 0.1 M Hepes pH 7.5
T1 sequence (Q9C9G4 28-290): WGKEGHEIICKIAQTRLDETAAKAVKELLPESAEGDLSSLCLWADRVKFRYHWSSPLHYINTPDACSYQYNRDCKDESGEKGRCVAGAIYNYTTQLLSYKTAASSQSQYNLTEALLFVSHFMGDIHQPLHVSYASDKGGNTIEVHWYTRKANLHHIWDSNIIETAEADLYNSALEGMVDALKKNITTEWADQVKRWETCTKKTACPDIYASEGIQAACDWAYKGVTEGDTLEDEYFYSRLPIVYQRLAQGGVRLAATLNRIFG

AtBFN2 [2] = target: T1, AtBFN2; assay: acid-soluble ssDNA release, A260; assay type: biochemical; design: gene ENDO2; ENDO2 cDNA with C-terminal 6xHis tag, overexpressed in transgenic Arabidopsis seedlings; three Zn ions; conditions: heat-denatured ssDNA substrate; 100 mM Tris pH 7, 37 °C, 10 min; 1 mM Na3VO4

| SMILES | X-ray crystal structure, 2.0 Å (AtBFN2 [1]) | % inhibition at 1 mM (AtBFN2 [2]) |
| --- | --- | --- |
| O=P(O)(O)O [phosphate] | have a phosphate anion displacing all coordinating waters, except Wat3 (Fig. 2D) | – |
| [O]=[V]([OH])([OH])[OH] [vanadate] | – | 80% |
